Laboratory results published in patent US11850237B2, “Compounds and methods for treating influenza” (priority 2009, dated 2023).
pEC50: −log10 of the molar value. In brackets after ≈: the same amount, converted by molar mass. Read-outs that look alike come from different tables or passages of the source.

Legend:
[1] = system: viral hemagglutinin (HA0); assay type: cell-based, influenza A virus; details: for HA0 maturation in other host cells and strains: WSN in A549 cells, A/Ck and PR8 in MDCK cells
Adenovirus = assay: Activity against other respiratory viruses: Adenovirus; assay type: cell-based; details: unidentified adenovirus
[2] = Double-blind placebo controlled trials in influenza-like illness; assay type: in vivo, human
Description: Evaluation of the effect of twice daily nitazoxanide for 5 days on the duration of symptoms in pediatric patients and adults with influenza-like illnesses was conducted. Two double-blind placebo controlled trials were conducted. Children 12 months-11 years of age were given NTZ suspension (n=100, 50 per group) and Patients ≥12 years of age were given NTZ 500 mg tablets (n=86, 43 per group). Single center trials were conducted. Studies were based on TAMIFLU® trials. The trials followed specific Inclusion/exclusion criteria. Inclusion required children age 1-11 years of patients ≥12 years of age with a fever >100° F. with ≥1 respiratory symptom (including cough, nasal discharge, sneezing, sore throat, etc.) and/or with ≥1 constitutional symptom (myalgia, malaise, fatigue, headache, chills/sweat, etc.). Major exclusions included symptom duration ≥72 hours, pregnancy or breastfeeding, concurrent antibiotics/antiviral medication, or a history of asthma or other pulmonary disease.
Patients were randomized to receive NTZ or placebo b.i.d. for 5 days. Nasopharyngeal swab collected at baseline for rapid direct immunofluorescence assay (SimulFluor respiratory Screen) for 7 viruses (RSV, Influenza A & B, Parainfluenza 1-3, and Adenovirus). Symptoms recorded in a daily diary by the patient (or parent) with each symptom graded on a scale of 0 to 3: absent, mild, moderate, severe. Tissue was stored in a ziplock plastic bag and collected daily by study personnel for weighing. A follow up physical examination was conducted on day 7. The primary endpoint was the time from baseline to each symptom returning to absent or mild (<2). Secondary endpoints include antibiotic use, day 7 respiratory symptoms, daily tissue/mucus weight.

H1N1 A/PR/8/34 (PR8) = assay: microbe, parasite or virus in culture; assay type: cell-based, influenza A virus; details: for EC90: read-out: Virus Yield EC90; for antiviral activity against PR8, overall rating: PR8 influenza A virus, Table 1
Parainfluenza = assay: Activity against other respiratory viruses: Parainfluenza; assay type: cell-based
Rhinovirus = assay: Activity against other respiratory viruses: Rhinovirus; assay type: cell-based, human rhinovirus; details: Enterovirus
[3] = system: H1N1 A/PR/8/34 (PR8) virus; assay: microbe, parasite or virus in culture; assay type: cell-based, influenza A virus; details: for PR8 Yield: no zanamivir (Control)
[4] = system: H5N9 low-pathogenicity avian strain A/Ck/It/9097/97 (A/Ck); assay: microbe, parasite or virus in culture; assay type: cell-based; details: Influenza A virus, H5N9, MDCK, 24 h, read-out: EC50, inhibition of virus replication
[5] = system: Respiratory syncytial virus; assay: Activity against other respiratory viruses: Respiratory syncytial virus; assay type: cell-based; details: human respiratory syncytial virus
Coronavirus = assay: Activity against other respiratory viruses: Coronavirus; assay type: cell-based
influenza = assay: Clinical trials, treatment of influenza; assay type: in vivo, human; details: orally 300 mg or 600 mg twice daily for 5 days
Description: Low dose administration of thiazolides such as NTZ to treat virus infection. NTZ can be administered orally at a dose of 300 mg or 600 mg twice daily for 5 days as a treatment of influenza. […] Preferably, the dosage of nitazoxanide is 300 mg twice daily for 5 days, which is less than the dosage of NTZ needed to treat intestinal infections, thereby enabling a reduction of side effects associated with higher dosages. Thiazolides can also be administered as a modified release bi-layer tablet. As such, thiazolides can be administered in 100 mg, 200 mg, 300 mg, 400 mg, 500 mg or 600 mg doses twice daily for 5 days to treat virus infection.

A/WSN/33 (WSN) = assay: microbe, parasite or virus in culture; assay type: cell-based; details: Influenza A virus, MDCK, 24 h, read-out: EC50, inhibition of virus replication
[6] = Toxicity / cell viability by MTT in uninfected MDCK cells; assay type: cell-based, canine; details: dog, uninfected MDCK cells; uninfected cells
Description: (§1) Cell culture, treatment and transfection-Madin-Darby canine kidney (MDCK) cells, and human A549 alveolar type II-like epithelial, Jurkat Tlymphoblastoid and U397 monocytic leukemia cells were grown at 37° C. in a 5% CO2 atmosphere in RPMI 1640 (Invitrogen), supplemented with 10% fetal calf serum (FCS), 2 mM glutamine and antibiotics. Test compounds were added immediately after 1-hour adsorption period, and kept in the culture medium for the entire time of the experiment, unless differently specified. […] Cell viability was determined by the 3-(4,5-dimethylthiazol-2-yl)-2,5-diphenyltetrazolium bromide (MTT) to MTT formazan conversion assay (Sigma-Aldrich) as described previously. Microscopical examination of mock-infected or virus-infected cells was performed using a Leica DM-IL microscope and images were captured on a Leica DC 300 camera using Leica Image-Manager500 software.

MDCK cells [7] = assay: as above; assay type: cell-based, canine; details: MDCK cells, MTT
Description: as §1

[8] = system: H1N1 A/PR/8/34 (PR8) virus; assay: microbe, parasite or virus in culture; assay type: cell-based, influenza A virus; details: Influenza A virus, MDCK, 24 h
[9] = Cytotoxicity (CC50) in the other respiratory virus assays
[10] = biological target: viral hemagglutinin (HA0) (Influenza A virus, UniProt P03452); assay type: cell-based
[11] = system: influenza B virus, B/Parma/3/04; assay type: cell-based; details: B/Parma/3/04 influenza B, MDCK cells, 10 μg/ml TIZ
[12] = system: human low-density lipoprotein receptor (LDLR); assay: Plasma membrane targeting of LDLR in transfected MDCK cells; assay type: cell-based; details: LDLR-A18-GFP transfected MDCK cells, TIZ 10 μg/ml for 16 h
Text: For transfection experiments, MDCK cells plated in LabTekII coverglass chambers (Nunch-Thermo Fisher Scientific Inc.) were transiently transfected with green fluorescent protein (GFP)-tagged internalization-defective human low-density lipoprotein receptor (hLDLR) mutant (LDLR-A18-GFP plasmid, kindly provided by E. Rodriguez-Boulan, Cornell University New York, NY), using Lipofectamine 2000 (Invitrogen) according to the manufacturer's instructions.
For detection of plasma membrane targeting of human low-density lipoprotein receptor (hLDLR), MDCK cells plated in coverglass chambers were transiently transfected with GFPtagged internalization-defective hLDLR mutant (LDLR-A18-GFP plasmid) and, after 8 h, treated with TIZ (10 μg/ml) or vehicle for the following 16 h. After blocking protein synthesis with 100 μg/ml cycloheximide (Sigma-Aldrich) for 1 h, plasma membranes were stained using CellMask™ Orange plasma membrane stain (Molecular Probes, Invitrogen). After staining, cells were examined using a Leica DM-IL fluorescence microscope equipped with UV excitation filters. The images were captured with a Leica DC-300 camera using Leica Image-Manager500 software.

PR8 virus = assay type: cell-based, influenza A virus
MDCK cells [13] = assay: Host protein synthesis, eIF2α phosphorylation and Grp78/BiP in MDCK cells; assay type: cell-based, canine
Description: Metabolic labeling, analysis of protein synthesis and Western Blot Mock-infected or influenza virus-infected cells were labeled with 10 μCi/ml of [35S]-methionine-cysteine ([35S]-Met/Cys, Redivue Pro-Mix 35S in vitro cell-labeling mix; GE Healthcare) for the indicated times after 30 min. starvation in methionine/cysteine-free medium. For pulse/chase experiments, cells were labeled [35S]-Met/Cys (100 μCi/ml) for 15 min., after 30 min. starvation in methionine/cysteine-free medium. At the end of pulse, cells were chased in complete medium containing 10 mM cold methionine and 1 mM cycloheximide for different times in the absence or presence of TIZ. The pulse/chase were terminated by placing the cells on ice. After cell lysis in RIPA buffer (150 mM NaCl, 10 mM Tris-HCl pH 7.5, 4 mM EDTA, 1% Triton X-100, 600 mM KCl), containing 1 mM phenylmethylsulphonyl fluoride (PMSF) and a protease inhibitor cocktail (PIC; Roche Diagnostics GmbH), samples containing the same amount of radioactivity were separated by SDS/PAGE (3% stacking gel, 10% resolving gel) and processed for autoradiography, as described. Autoradiographic patterns were visualized and quantified in Typhoon-8600 Imager (Molecular Dynamics, Amersham Pharmacia Biotech) and images were acquired using ImageQuant software (Amersham Pharmacia Biotech) (MDP analysis).
For Western blot analysis, cells were lysed with cold high-salt extraction (HSB) buffer containing 2 mM dithiothreitol (DTT), 1 mM PMSF, 1 mM orthovanadate, 20 mM β-glycerophosphate, 1 mM p-nitrophenyl phosphate (pNPP) and PIC, or with RIPA buffer, containing 1 mM PMSF and PIC. […] Quantitative evaluation of proteins was determined by Versadoc-1000 analysis using the Quantity One software program, available through BIO-RAD Laboratories.

[14] = system: H3N2 A/Firenze/7/03 (A/FI); assay type: cell-based, influenza A virus; details: MDCK cells, 10 μg/ml TIZ
[15] = system: influenza A virus (PR8 in U937 and Jurkat, WSN in A549 cells); assay: Influenza A virus replication in human cells (U937, Jurkat, A549); assay type: cell-based; details: monocytic U937, T-lymphocytic Jurkat and alveolar type II-like A549 cells, read-out: EC50, inhibition of influenza A virus replication in human cells
[16] = Influenza A virus, MDCK, 24 h, read-out: EC50, inhibition of virus replication
[17] = Influenza A virus, PR8, MDCK cells, read-out: Virus Yield EC50
[18] = Influenza A virus, PR8, MDCK cells

viral hemagglutinin (HA0) (Influenza A virus, UniProt P03452), sequence (P03452 18-565 limits assumed): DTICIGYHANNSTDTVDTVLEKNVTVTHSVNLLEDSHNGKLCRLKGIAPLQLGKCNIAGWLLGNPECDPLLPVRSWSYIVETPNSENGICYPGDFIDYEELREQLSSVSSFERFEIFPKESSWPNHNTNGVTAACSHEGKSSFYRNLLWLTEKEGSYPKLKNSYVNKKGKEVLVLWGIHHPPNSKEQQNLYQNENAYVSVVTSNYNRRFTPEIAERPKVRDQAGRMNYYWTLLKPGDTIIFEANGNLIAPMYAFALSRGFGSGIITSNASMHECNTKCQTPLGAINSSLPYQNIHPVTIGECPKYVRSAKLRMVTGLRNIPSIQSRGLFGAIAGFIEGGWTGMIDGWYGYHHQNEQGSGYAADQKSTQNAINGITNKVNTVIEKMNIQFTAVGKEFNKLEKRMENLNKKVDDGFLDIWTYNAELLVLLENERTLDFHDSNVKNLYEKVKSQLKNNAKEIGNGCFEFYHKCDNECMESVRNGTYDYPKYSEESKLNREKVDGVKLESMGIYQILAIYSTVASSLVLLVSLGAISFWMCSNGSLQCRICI

Compound: CC(=O)Oc1ccccc1C(=O)Nc1ncc([N+](=O)[O-])s1 [Compound 1, nitazoxanide]
- HA0 maturation in other host cells and strains [1]: caused similar alterations
- EC50 (Adenovirus): 0.2 µg/mL (≈ 0.651 µM)
- respiratory symptoms, Day 7 Physical Exam ([2]; influenza-like illness, FIG. 13): reduces respiratory symptoms
- resolution of symptoms associated with influenza-like illness ([2]; subjects not positive for Adenovirus, RSV, Influenza A, Parainfluenza 1, FIG. 12): can resolve symptoms
- treatment of patients with influenza like illness ([2]; twice daily for 5 days vs placebo, patients mostly negative for Adenovirus, RSV, Influenza A, Parainfluenza 1): has the ability to treat patients
- EC50 (H1N1 A/PR/8/34 (PR8); [16]): 1 µg/mL
- pEC50 (H1N1 A/PR/8/34 (PR8); Influenza A virus, MDCK, PR8 virus, separate studies, read-out: EC50 (molar equivalent)): 5.48
- EC50 (H1N1 A/PR/8/34 (PR8); [17]): 1 µg/mL
- EC90 (H1N1 A/PR/8/34 (PR8); [18]): 7 µg/mL (≈ 22.8 µM)
- antiviral activity against PR8, overall rating (H1N1 A/PR/8/34 (PR8)): potent and selective
- EC50 (Parainfluenza): 0.5 µg/mL (≈ 1.63 µM)
- EC50 (Rhinovirus): > 10 µg/mL
- EC50 ([3]; Influenza A virus, MDCK, 24 h, read-out: EC50 of NTZ in the experiments with zanamivir): 0.66 µg/mL
- pEC50 ([3]; Influenza A virus, MDCK, 24 h, read-out: EC50 of NTZ in the experiments with zanamivir (molar equivalent)): ~5.66
- PR8 Yield ([3]; Nitazoxanide 0.1 μg/ml): 48 HAU/ml
- PR8 Yield ([3]; Nitazoxanide 1 μg/ml): 16 HAU/ml
- EC50 [4]: 1 µg/mL (≈ 3.25 µM)
- EC50 [5]: 0.5 µg/mL (≈ 1.63 µM)
- EC50 (Coronavirus): 1 µg/mL (≈ 3.25 µM)
- treatment of influenza in clinical trials (influenza): has the ability to treat influenza
- EC50 (A/WSN/33 (WSN)): 0.5 µg/mL (≈ 1.63 µM)
- CC50 [6]: > 50 µg/mL
- Toxicity LD50 (MTT) (MDCK cells [7]): >50 µg/mL
- EC50 ([8]; read-out: EC50 of NTZ in the experiments with oseltamivir): 1 µg/mL
- pEC50 ([8]; read-out: EC50 of NTZ in the experiments with oseltamivir (molar equivalent)): 5.48
- CC50 [9]: > 50 µg/mL
- CC50 ([9]; Adenovirus line of Table 3): >50 µg/mL
- CC50 ([9]; Coronavirus line of Table 3): >50 µg/mL
- CC50 ([9]; Respiratory syncytial virus line of Table 3): >50 µg/mL
- CC50 ([9]; Rhinovirus line of Table 3): >50 µg/mL

Compound: O=C(Nc1ncc([N+](=O)[O-])s1)c1ccccc1O [Compound 2, tizoxanide]
- viral proteins in purified virions from supernatant ([1]; PR8-infected cells, 24 h p.i.): could not be detected
- HA0 maturation in other host cells and strains [1]: able to inhibit HA0 maturation
- Endo-H sensitivity of HA0 [10]: remained sensitive to digestion
- HA0 glycosylation (glucosamine, mannose incorporation) [10]: did not decrease glucosamine and actually increased mannose incorporation
- HA0 trimer formation [10]: did not prevent HA0 ability to form trimers
- change in influenza virus protein synthesis pattern (HA0 band) [10]: disappearance of a band of approximately 79 kDa
- intracellular HA0 levels / accumulation [10]: did not reduce intracellular HA0 levels
- plasma membrane levels of viral hemagglutinin [10]: dramatically decreased
- inhibition of virus replication [11]: very effective
- plasma membrane targeting of LDLR [12]: did not inhibit plasma membrane targeting of LDLR
- effect on virus replication under multi- and single-step virus growth (H1N1 A/PR/8/34 (PR8); H1N1 PR8, MDCK cells, 10 μg/ml TIZ, m.o.i. 10 or 0.001 ffu/cell): dramatic block
- EC50 (H1N1 A/PR/8/34 (PR8); [16]): 1 µg/mL
- EC50 (H1N1 A/PR/8/34 (PR8); [17]): 1 µg/mL
- EC90 (H1N1 A/PR/8/34 (PR8); [18]): 9 µg/mL (≈ 33.9 µM)
- antiviral activity against PR8, overall rating (H1N1 A/PR/8/34 (PR8)): potent and selective
- effect on influenza virus replication (PR8 virus): had no effect
- time after infection for which a single administration inhibits virus replication (PR8 virus; single administration after virus adsorption, 10 μg/ml, PR8, MDCK cells): at least 48 h
- effect on virus replication (PR8 virus; treatment of cells only during the adsorption period): did not inhibit virus replication
- EC50 [4]: 0.5 µg/mL (≈ 1.89 µM)
- EC50 (A/WSN/33 (WSN)): 0.5 µg/mL (≈ 1.89 µM)
- expression of Grp78/BiP (unfolded protein response marker) (MDCK cells [13]; MDCK cells): did not induce the expression
- host protein synthesis (MDCK cells [13]; [35S]-Met/Cys incorporation, 10 μg/ml TIZ): did not inhibit host protein synthesis
- phosphorylation of eukaryotic initiation factor 2α (eIF2-α) (MDCK cells [13]; uninfected or PR8-infected cells): did not affect phosphorylation
- CC50 [6]: > 50 µg/mL
- Toxicity LD50 (MTT) (MDCK cells [7]): >50 µg/mL
- inhibition of virus replication [14]: very effective
- EC50 [15]: 0.3 µg/mL (≈ 1.13 µM)
